One series deals with T1, p38 MAPKγ (MAPK12) (Homo sapiens, UniProt P53778).
T1 construct: purchased Invitrogen
T1 sequence (P53778 1-367): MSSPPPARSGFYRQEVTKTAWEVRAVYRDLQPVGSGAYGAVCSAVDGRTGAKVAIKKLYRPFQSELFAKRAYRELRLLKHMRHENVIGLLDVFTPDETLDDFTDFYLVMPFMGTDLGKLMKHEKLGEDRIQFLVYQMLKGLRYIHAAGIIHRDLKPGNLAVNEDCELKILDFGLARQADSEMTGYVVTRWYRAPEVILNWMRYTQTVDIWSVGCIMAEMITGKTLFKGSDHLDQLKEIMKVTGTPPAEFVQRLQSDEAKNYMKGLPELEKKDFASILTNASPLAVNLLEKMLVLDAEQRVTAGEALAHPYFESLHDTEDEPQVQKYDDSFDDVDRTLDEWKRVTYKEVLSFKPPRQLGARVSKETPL
The experiment in a line: Enzyme inhibition assay (FRET, Z-LYTE), p38 MAPKγ. The format is biochemical. The conditions noted are these: read-out: Enzyme Inhibition IC50 p38γ. In a few lines: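 Recombinant phosphorylated p38 MAPKγ preincubated 2 h at RT with compound in HEPES buffer, then 2 μM FRET peptide and 100 μM ATP added for 1 h; protease development 1 h. Coumarin/fluorescein emission ratio gave phosphorylation; IC50 from concentration-response versus uninhibited control.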

Series [1] addresses T2, p38 MAPKα isoform (MAPK14) (Homo sapiens, UniProt Q16539).
T2 construct: purchased Invitrogen
The experiment in a line: Enzyme inhibition assay (FRET, Z-LYTE), p38 MAPKα via MAPKAP-K2 activation. The format is biochemical. Particulars: read-out: Enzyme Inhibition IC50 p38α. In a few lines: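 Recombinant p38 MAPKα was preincubated with compound for 2 h at RT. Its activity was measured indirectly through activation/phosphorylation of downstream MAPKAP-K2, with a Z-LYTE FRET peptide read-out (coumarin/fluorescein ratio) after a 1 h development step. IC50 came from concentration-response curves of percent inhibition versus an uninhibited control.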

Series [2] has as its system IL-8 release in d-U937 cells. Briefly: LPS-induced IL-8 release in d-U937 cells. The format is cell-based, human. In a few lines:
(§1)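 PMA-differentiated (100 ng/ml, 48–72 hr) U937 macrophage-type cells pre-incubated 2 hr with compound, then stimulated 4 hr with 0.1 μg/mL E. coli O111:B4 LPS; supernatant TNFα and IL-8 measured by sandwich ELISA. TNFα inhibition expressed relative to 10 μg/mL BIRB796, giving REC50; IL-8 inhibition versus vehicle, giving IC50.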

In series [3] the test system is TNFα release in THP-1 cells. The experiment in a line: LPS-induced TNFα release in THP-1 cells. The format is cell-based, human. In a few lines:
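Human monocytic THP-1 cells stimulated with 3 μg/mL E. coli LPS for 4 hr; supernatant TNFα measured by sandwich ELISA. Inhibition at each concentration versus vehicle control, IC50 from concentration-response curve.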

For series [4], the system named is TNFα release in d-U937 cells. The experiment in a line: LPS-induced TNFα release in d-U937 cells. The format is cell-based, human. In a few lines: as §1
In series [5] the test system is Differentiated U937 cells. Briefly: Cell viability MTT assay. The format is cell-based, human. The conditions noted are these: negative = apparent increase in viability; for MTT Assay (Viability) 4 h d-U937, percentage loss of cell viability: 4 hr in 5% FCS; for MTT Assay (Viability) 24 h d-U937, percentage loss of cell viability: 24 h in 10% FCS. In a few lines: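 Differentiated U937 cells pre-incubated with compound either 4 hr in 5% FCS or 24 h in 10% FCS, then 1 hr MTT. Formazan dissolved in DMSO, absorbance at 550 nm. Percentage viability loss relative to 0.5% DMSO vehicle; apparent increases appear as negative percentages.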
A general note: Tetrazolium dyes change colour on reduction, which living cells bring about.

Series [6] deals with ICAM-1 induction in BEAS2B cells. The experiment in a line: Poly I:C-induced ICAM-1 induction in BEAS2B cells. The format is cell-based, human. Particulars: read-out: PolyIC/ICAM1 IC50 BEAS2B. In a few lines:
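Human bronchial epithelial BEAS2B cells were pre-incubated with compound for 2 hr, then transfected with 1 μg/mL poly I:C. After 18 hr, surface ICAM-1 was measured by cell-based ELISA (OD450-655) and normalized to crystal violet cell counts (OD595). IC50 came from inhibition versus vehicle across the concentration-response curve.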

Setting [7] is: Homo sapiens, dU937, relative to 10 μg/mL BIRB796, read-out: LPS/TNFα REC50 d-U937.

Where two headings read alike, the source gives them in different places.

T2 sequence (Q16539 whole entry, canonical isoform): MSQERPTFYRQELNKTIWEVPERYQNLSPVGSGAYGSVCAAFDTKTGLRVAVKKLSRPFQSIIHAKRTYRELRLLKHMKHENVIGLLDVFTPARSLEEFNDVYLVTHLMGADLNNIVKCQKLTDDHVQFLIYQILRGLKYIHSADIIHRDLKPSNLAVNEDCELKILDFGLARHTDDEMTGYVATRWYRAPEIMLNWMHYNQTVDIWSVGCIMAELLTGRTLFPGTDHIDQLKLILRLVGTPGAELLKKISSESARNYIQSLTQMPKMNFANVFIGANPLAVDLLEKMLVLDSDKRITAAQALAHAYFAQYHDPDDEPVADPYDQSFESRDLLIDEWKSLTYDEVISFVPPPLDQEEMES

For `CN(C)CCNC(=O)Nc1cc(Oc2ccc(NC(=O)Nc3cc(C(C)(C)C)nn3-c3ccc(CO)cc3)c(Cl)c2Cl)ccn1` [Example 70, 1-(3-tert-butyl-1-(4-hydroxymethylphenyl)-1H-pyrazol-5-yl)-3-(2,3-dichloro-4-(2-(3-(2-(dimethylamino)ethyl)ureido)pyridin-4-yloxy)phenyl)urea], the IC50 on p38 MAPKγ (MAPK12) stood at 30.1 nM; in series [1] it was 3.5 nM; in series [2] (Homo sapiens, dU937), 5.7 nM; in series [3] (Homo sapiens), 2.4 nM; in series [6] (Homo sapiens, BEAS-2B), 10.1 nM. The EC50 in series [4] (setting [7]) was 1.5 nM. For the same molecule, the “MTT Assay (Viability) 4 h d-U937, percentage loss of cell viability” value in series [5] is reported as 6.1%. Further, the “MTT Assay (Viability) 24 h d-U937, percentage loss of cell viability” value in series [5] is listed as 94.1%.
Take `CC(C)(C)c1cc(NC(=O)Nc2ccc(Oc3ccnc(NC(=O)NCCN4CCOCC4)c3)c(Cl)c2Cl)n(-c2ccc(CO)cc2)n1` [Example 71, 1-(4-(4-(3-(3-tert-butyl-1-(4-hydroxymethylphenyl)-1H-pyrazol-5-yl)ureido)-2,3-dichlorophenoxy)pyridin-2-yl)-3-(2-morpholinoethyl) urea]: the IC50 turned out to be 60.4 nM at p38 MAPKγ (MAPK12); 19.4 nM in series [1]; 1.4 nM in series [2] (Homo sapiens, dU937); 0.7 nM in series [3] (Homo sapiens); 1.9 nM in series [6] (Homo sapiens, BEAS-2B). The EC50 in series [4] (setting [7]) was 1.1 nM. In series [5], the “MTT Assay (Viability) 4 h d-U937, percentage loss of cell viability” value was −20.5%. Also, the “MTT Assay (Viability) 24 h d-U937, percentage loss of cell viability” value in series [5] came to 84.3%.
As for `Cc1ccc(-n2nc(C(C)(C)C)cc2NC(=O)Nc2ccc(Oc3ccnc(NC(=O)N4CCCC4)c3)c(Cl)c2Cl)cc1` [Example 72, N-(4-(4-(3-(3-tert-butyl-1-p-tolyl-1H-pyrazol-5-yl)ureido)-2,3-dichlorophenoxy)pyridin-2-yl) pyrrolidine-1-carboxamide], the IC50 was found to be 315 nM on p38 MAPKγ (MAPK12); 41.3 nM in series [1]; 0.2 nM in series [2] (Homo sapiens, dU937); 0.6 nM in series [3] (Homo sapiens); 7.5 nM in series [6] (Homo sapiens, BEAS-2B). The EC50 in series [4] (setting [7]) came out at 1.9 nM. Besides, in series [5], the “MTT Assay (Viability) 4 h d-U937, percentage loss of cell viability” value is given as −13.7%. For the same molecule, the “MTT Assay (Viability) 24 h d-U937, percentage loss of cell viability” value in series [5] stood at 26.9%.
As to `CNC(=O)Nc1cc(Oc2ccc(NC(=O)Nc3cc(C4(C)CCCCC4)nn3-c3ccc(C)cc3)c(Cl)c2Cl)ccn1` [Example 73, 1-(3-(1-methylcyclohexyl)-1-p-tolyl-1H-pyrazol-5-yl)-3-(2,3-dichloro-4-(2-(3-methylureido)pyridin-4-yloxy)phenyl)urea], the IC50 at p38 MAPKγ (MAPK12) was 243 nM; in series [1], 151 nM; in series [2] (Homo sapiens, dU937), 1.9 nM; in series [3] (Homo sapiens), 12.8 nM; in series [6] (Homo sapiens, BEAS-2B), 1300 nM. For the same molecule, the EC50 in series [4] (setting [7]) is 1.7 nM. In series [5], the “MTT Assay (Viability) 4 h d-U937, percentage loss of cell viability” value is −27.3%. Further, in series [5], the “MTT Assay (Viability) 24 h d-U937, percentage loss of cell viability” value is reported as 12.3%.
On to `Cc1ccc(-n2nc(C3(C)CCCCC3)cc2NC(=O)Nc2ccc(Oc3ccnc(NC(=O)N4CCCC4)c3)c(Cl)c2Cl)cc1` [Example 74, N-(4-(2,3-dichloro-4-(3-(3-(1-methylcyclohexyl)-1-p-tolyl-1H-pyrazol-5-yl)ureido)phenoxy)pyridin-2-yl)pyrrolidine-1-carboxamide], for which the IC50 is 744 nM on p38 MAPKγ (MAPK12); 328 nM in series [1]; 2.7 nM in series [2] (Homo sapiens, dU937); 11.5 nM in series [3] (Homo sapiens); 4.6 nM in series [6] (Homo sapiens, BEAS-2B). Besides, the EC50 in series [4] (setting [7]) came to 0.5 nM. Moreover, the “MTT Assay (Viability) 4 h d-U937, percentage loss of cell viability” value in series [5] is 1.2%. In series [5], the “MTT Assay (Viability) 24 h d-U937, percentage loss of cell viability” value stood at 5.5%.
For `CC(C)(C)c1cc(NC(=O)Nc2ccc(Oc3ccnc(NC(=O)N4CCCC4)c3)c(Cl)c2Cl)n(-c2ccc(CO)cc2)n1` [Example 77, N-(4-(4-(3-(3-tert-butyl-1-(4-hydroxymethylphenyl)-1H-pyrazol-5-yl)ureido)-2,3-dichlorophenoxy)pyridin-2-yl)pyrrolidine-1-carboxamide], the IC50 was found to be 24.3 nM on p38 MAPKγ (MAPK12); 18.4 nM in series [1]; 0.4 nM in series [2] (Homo sapiens, dU937); 0.4 nM in series [3] (Homo sapiens); 2.5 nM in series [6] (Homo sapiens, BEAS-2B). Moreover, the EC50 in series [4] (setting [7]) worked out at 0.2 nM. In addition, the “MTT Assay (Viability) 4 h d-U937, percentage loss of cell viability” value in series [5] is −8.8%. For the same molecule, the “MTT Assay (Viability) 24 h d-U937, percentage loss of cell viability” value in series [5] was determined as 53.3%.
On to `COc1ccc(-n2nc(C(C)(C)C)cc2NC(=O)Nc2ccc(Oc3ccnc(NC(=O)NC4CC4)c3)c(C#N)c2Cl)cc1` [Example 78, 1-(3-tert-butyl-1-(4-methoxyphenyl)-1H-pyrazol-5-yl)-3-(2-chloro-3-cyano-4-(2-(3-cyclopropylureido)pyridin-4-yloxy)phenyl) urea], for which the IC50 at p38 MAPKγ (MAPK12) was 96.2 nM; in series [1] it was 84.6 nM; in series [2] (Homo sapiens, dU937), 2.2 nM; in series [3] (Homo sapiens), 1.4 nM; in series [6] (Homo sapiens, BEAS-2B), 2.2 nM. The EC50 in series [4] (setting [7]) was determined as 1.6 nM. The “MTT Assay (Viability) 4 h d-U937, percentage loss of cell viability” value in series [5] is reported as 1.0%. The “MTT Assay (Viability) 24 h d-U937, percentage loss of cell viability” value in series [5] is 20.9%.
As to `COc1ccc(-n2nc(C(C)(C)C)cc2NC(=O)Nc2ccc(Oc3ccnc(NC(=O)N4CCCC4)c3)c(C#N)c2Cl)cc1` [Example 79, N-(4-(4-(3-(3-tert-butyl-1-(4-methoxyphenyl)-1H-pyrazol-5-yl)ureido)-3-chloro-2-cyanophenoxy)pyridin-2-yl)pyrrolidine-1-carboxamide], the IC50 came to 36.6 nM at p38 MAPKγ (MAPK12); 32.3 nM in series [1]; 6.6 nM in series [2] (Homo sapiens, dU937); 0.5 nM in series [3] (Homo sapiens); 1.3 nM in series [6] (Homo sapiens, BEAS-2B). Also, in series [4] (setting [7]), the EC50 worked out at 0.4 nM. For the same molecule, the “MTT Assay (Viability) 4 h d-U937, percentage loss of cell viability” value in series [5] is listed as −13.9%. Besides, the “MTT Assay (Viability) 24 h d-U937, percentage loss of cell viability” value in series [5] was 23.2%.
Take `COc1ccc(-n2nc(C(C)(C)C)cc2NC(=O)Nc2ccc(Oc3ccnc(NC(=O)N4CC[C@@H](N(C)C)C4)c3)c(Cl)c2Cl)cc1` [Example 81, (R)-N-(4-(4-(3-(3-tert-butyl-1-(4-methoxyphenyl)-1H-pyrazol-5-yl)ureido)-2,3-dichlorophenoxy)pyridin-2-yl)-3-(dimethylamino) pyrrolidine-1-carboxamide]: the IC50 on p38 MAPKγ (MAPK12) was 58.5 nM; in series [1], 7.7 nM; in series [2], 4.9 nM; in series [3] it was 1.1 nM; in series [6], 14 nM. For the same molecule, the EC50 in series [4] (relative to 10 μg/mL BIRB796, read-out: LPS/TNFα REC50 d-U937) worked out at 0.8 nM. The “MTT Assay (Viability) 4 h d-U937, percentage loss of cell viability” value in series [5] is given as −8.7%. Further, the “MTT Assay (Viability) 24 h d-U937, percentage loss of cell viability” value in series [5] stood at 33.3%.
In the case of `COc1ccc(-n2nc(C(C)(C)C)cc2NC(=O)Nc2ccc(Oc3ccnc(NC(=O)N4CC[C@H](N(C)C)C4)c3)c(Cl)c2Cl)cc1` [Example 82, (S)-N-(4-(4-(3-(3-tert-butyl-1-(4-methoxyphenyl)-1H-pyrazol-5-yl)ureido)-2,3-dichlorophenoxy)pyridin-2-yl)-3-(dimethylamino) pyrrolidine-1-carboxamide], the IC50 on p38 MAPKγ (MAPK12) is 33.6 nM; in series [1], 14.1 nM; in series [2] (Homo sapiens, dU937) it was 4.6 nM; in series [3] (Homo sapiens), 0.3 nM; in series [6] (Homo sapiens, BEAS-2B), 2.1 nM. The EC50 in series [4] (setting [7]) is 1.8 nM. In addition, in series [5], the “MTT Assay (Viability) 4 h d-U937, percentage loss of cell viability” value is listed as −13.2%. Also, in series [5], the “MTT Assay (Viability) 24 h d-U937, percentage loss of cell viability” value was found to be 20.5%.
